# Patent US20220096650A1 (Glaxosmithkline Intellectual Property Development Limited, priority 2019, published 2022)
# System: Dendritic cells
# Assay: Co-culture of immature dendritic cells with BCMA ADC treated NCI-H929 cells, maturation markers by flow cytometry
# Type: cell-based, human
# Description: The process of immunogenic cell death can induce the production of danger molecules that lead to the activation of dendritic cells (see FIG. 1A-ICD is a special type of apoptosis often associated with the cellular release of ATP and HMGB1, and exposure of CRT at the cellular membrane. ICD induces an immune response through engagement of the antigen presentation process by dendritic cells (DCs)). […] Anti-BCMA-MMAF induced ATP release, HMGB1 release and CRT exposure only in NCI-H929, a BCMA positive MM cell line). To investigate the effect of NCI-H929 cell killing by BCMA ADC on the activation of dendritic cells, co-culture experiments were carried out with BCMA ADC treated NCI-H929 cells and immature dendritic cells (iDCs) differentiated from human monocytes in vitro with GM-CSF/IL-4 treatment. A number of dendritic cell maturation markers as well as IL-10 and IL-12p70, two major cytokines secreted by dendritic cells upon activation, were monitored in this process to assess the effect of BCMA ADC induced cell death on dendritic cell activation. Fresh, whole Human blood was obtained from three healthy donors from the Upper Providence Blood Donation Unit with syringes coated in liquid sodium heparin ([…] 10 IU/mL final concentration). Monocytes were isolated from fresh, whole human blood using the RosetteSep Monocyte Enrichment kit (Cat. #15068) and were assessed for expression of cell surface CD14 (BD Bioscience Cat. #562698) using flow cytometry. […] All cells were counted at the initiation of the co-culture and diluted with X-Vivo-15 media to a concentration of 7.5×10^5 cells/mL. […] Data for the secreted IL-10 and IL-12p70 from supernatants in the co-culture assays w analyzed in MSD Discovery Workbench v4.0.12. […] Marker expression was measured in (a) untreated (no BCMA ADC) Dendritic cells alone and (b-f) Dendritic cells that were co-cultured with (b) untreated (no BCMA ADC), (c) IgG Control (10 μg/mL), (d) 0.1, (e) 1 and (f) 10 μg/mL BCMA ADC treated (48 hours) NCI-H929 cells. […]
# [1] = three healthy donors, 24 hour co-culture, 0.1, 1, 10 μg/mL BCMA ADC
substance,measurement,setting,value
GSK2857916,effect of killing of NCI-H929 cells on dendritic cells,24 hour co-culture 1:1 with NCI-H929 cells treated 48 hours,stimulatory effect on dendritic cells
same,CD40 cell surface expression on CD11c+ Dendritic cells,[1],increased
same,CD83 cell surface expression on HLA-DR+ Dendritic cells,[1],increased
